SMILES strings stand for the structures.

Here are results for two compounds from patent US20080161219A1, “CLATHRATES OF AN ORGANOSILANE QUATERNARY AMMONIUM COMPOUND AND UREA AND METHODS OF USE” (priority 2007, published 2008).

Data set [1] can be described thus: Solubility / stability against decomposition in chloroform. The format is physicochemical. The procedure:
The following experiments were conducted to determine if the clathrate compositions of this invention would be decomposed by chloroform (a strong solvent).
7.51 grams of urea were slurried in a beaker with 75.4 grams of chloroform by magnetic stirring for 10 minutes. The slurry was then filtered by gravity through filter paper. The filtrate was employed to rinse the beaker to remove all solids and the rinse added to the filter cake. The filtrate was then evaporated in a tared beaker and a residue of 0.01 grams obtained (which was within experimental error). From this experiment, it can be concluded that urea was insoluble in chloroform.
10.21 grams of Example 7, Table 1 organosilane quaternary clathrate was slurried as above in 75 grams of chloroform for 10 minutes and the slurry filtered as above and the filtrate evaporated to dryness. A waxy residue of 0.07 grams remained in the beaker.
It can be concluded that this residue was not the organosilane quaternary. The solids that were filtered were dried to constant weight. 10.24 grams were recovered. 10.21 grams of the clathrate had been added. The difference of +0.03 grams was within experimental error. It can be concluded that the clathrate was not soluble in chloroform and that the organosilane quaternary was not extracted from the clathrate by the chloroform.

Data set [2] can be described thus: Dissolving clathrate in deionized water (appearance of mixture). As to conditions: 6.4 gms clathrate in 800 ml deionized water (pH=3), shaken; 0.2% quat, 0.6% urea. The format is physicochemical.
Description: Clean and shield compositions were prepared by dissolving 6.4 gms of each urea clathrate of Examples 4 and 7 from Table 1 in 800 ml of deionized water (pH=3) by shaking in a plastic bottle. The resulting solutions contained 0.2% organosilane quaternary compound and 0.6% urea.

Regarding `NC(N)=O` [urea], in data set [1], the “residue of evaporated chloroform filtrate” value stood at 0.01 grams and the solubility in chloroform result is “insoluble”.

As to `CCCCCCCCCCCCCCCCCC[N+](C)(C)CCC[Si](OC)(OC)OC.[Cl-]` [Example 7, 3-(trimethoxysilyl)propyldimethyloctadecyl ammonium chloride], the appearance of solution entry in data set [2] is reported as “clear”.
